Data from patent US10058618B2, “PAK1-blocking 1,2,3-triazolyl esters” (priority 2016, dated 2018).
Read-outs that look alike come from different tables or passages of the source.

Assays:
[1] = test system: A549 human lung cancer cells; experiment: Trypan Blue cell viability/growth assay, A549 cells; type: cell-based; settings: for Potentiation of anti-cancer activity by esterization: ester vs original acid; for fold more potent than original acid, growth of A549 cells: ester vs original acid (ARC, CA or Ketorolac)
Protocol: (§1) A. Cell Lines: Human lung cancer (A549) cells carrying an oncogenic K-RAS mutant or murine melanoma (B16F10) cells
(§2) B. Cell seeding in 96 well plate: In culture medium D-MEM with or without 10% fetal bovine serum.
(§3) C. Inhibitor Stocks in DMSO (100 mM)
(§4) D. Trypan Blue Assay for Cell Viability/Growth (4): The most commonly used MTT assay for cell viability/growth is not feasible for cells treated with triazolyl derivatives, mainly because these compounds are reduced by mitochondrial reductase in viable cells, just like MTT, and converted to a purple compound which would clearly interfere with the colorimetry on which MTT assay depends. Thus, a more classic method called Trypan Blue exclusion assay should be used for determining cell viability/growth of cells treated with all triazolyl derivatives. In this assay, only dead cells are stained with Trypan Blue, while viable cells exclude this blue dye.
(§5) The assay was conducted as previously described. Briefly, A549 or B16F10 cells were seeded at 2×10^4 cells/well in 96 well plate for 24 hrs in the above medium, and then treated with one of the tested compounds in the same medium for 96 hrs. Cell were detached from the plate by a protease called accutase, and stained with Trypan blue, and the number of unstained (viable) cells was counted in a hemocytometer.

[2] = ester vs parent acid (CA or UA); cited from earlier work
PAK1 = target: T1, PAK1 (Homo sapiens, UniProt Q13153); experiment: Anti-PAK1 activity in cell culture, Macaroni-Western (IP) ATP-Glo kinase assay; type: cell-based
T1 construct: endogenous in cells; host or cells: A549 human lung cancer cells
Protocol: A. Cell line: Human lung cancer (A549) cells.
B. Cell seeding in 6-well plate with the culture medium (D-MEM).
C. Inhibitor Stocks in DMSO (100 mM).
D. “Macaroni-western” (IP) ATP-Glo kinase assay: The kinase activity of PAK1 in A549 (or B16F100 cells was measured by a method called “Macaroni-Western” (IP) ATP-Glo kinase assay. Briefly, cells (2×10^5 cells/mL) were pre-cultured on 6-well plate for 24 hrs in the medium. Then cells were treated with a test compound in the same medium for additional 24 hrs. Cells were disrupted by lysis buffer containing 50 mM Tris-HCl pH 7.5 and 150 mM NaCl and 1% Triton-X. For the immunoprecipitation (IP) of PAK1, the cleared cell lysates were incubated with anti-PAK1 IgG (1:50 dilution) and protein A-agarose beads for 1-2 hrs in cold room with continuous shaking by a rotary mixer (Nissin, Suginami-ku, Tokyo, Japan). The resultant IP (PAK1) from each lysate was incubated with ATP-Glo kinase assay kit (Promega) in the presence of ATP and MBP (myelin basic protein) for 1 hr at 37° C., and the remaining ATP level was measured by the ATP-dependent Luciferin-Luciferase reaction which eventually generates a luminescence. The final suspension was centrifuged, and the supernatant was transferred to 96-well plate for reading. Luminescence was recorded by MTP-880Lab microplate reader (Corona, Hitachinaka-ku, Ibaraki, Japan) with an integration time of 0.5 s per well.

recombinant human COX-2 = target: T2, recombinant human COX-2 (Homo sapiens, UniProt P35354); experiment: In vitro anti-COX-2 activity; type: biochemical
T2 sequence (P35354 18-604): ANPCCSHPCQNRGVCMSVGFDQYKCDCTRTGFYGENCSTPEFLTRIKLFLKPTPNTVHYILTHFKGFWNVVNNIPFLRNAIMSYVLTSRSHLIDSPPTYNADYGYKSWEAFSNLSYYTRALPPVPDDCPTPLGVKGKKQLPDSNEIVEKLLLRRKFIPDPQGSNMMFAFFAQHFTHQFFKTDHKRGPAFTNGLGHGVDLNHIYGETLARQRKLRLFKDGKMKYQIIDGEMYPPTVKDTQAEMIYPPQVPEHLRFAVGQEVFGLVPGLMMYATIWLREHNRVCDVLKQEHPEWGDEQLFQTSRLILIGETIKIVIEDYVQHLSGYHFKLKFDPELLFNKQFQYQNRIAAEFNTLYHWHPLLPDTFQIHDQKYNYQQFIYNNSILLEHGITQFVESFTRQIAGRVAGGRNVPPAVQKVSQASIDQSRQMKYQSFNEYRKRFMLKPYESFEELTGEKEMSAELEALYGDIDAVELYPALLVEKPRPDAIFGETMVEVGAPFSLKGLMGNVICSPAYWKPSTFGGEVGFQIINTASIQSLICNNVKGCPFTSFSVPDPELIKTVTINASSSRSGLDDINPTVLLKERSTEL
Protocol: The effect of Ketorolac and PRC-15K (both in racemic form) on COX-2 was assayed in vitro, essentially according to the procedure previously published (5). Briefly, the recombinant human COX-2 was treated with either Ketorolac or PRC-15K at concentrations ranging 5-200 nM for 2 or 5 min (depending on the chemical nature of the test compounds) at room temperature in the presence of arachidonic acid, to measure the remaining COX-2 activity at 590 nm. The COX-2 activity without these test chemicals was used as the negative control for calculating their anti-COX-2 activity.

EMT6 breast cancer cells = experiment: Cell-permeability (intracellular uptake) assay by HPLC; type: in vitro ADME; settings: for fold more cell-permeable than original acid: 100 uM, uptake during first 1 hr, lower bound
Protocol: For measuring the uptake of both original acids and their esters into cells, a drug-resistant breast cancer cell line (EMT6) was chosen, as it survives the treatment with either acids or their esters at 100 uM for 24 hrs. The uptake of each compound (100 uM) into 1×10^5 cells mainly during the first 1 hr was quantitated by separation of either original acids or their esters taken by cells through HPLC column chromatography, and the amount of each compound was estimated by photometry at the wavelength 322 nm.

melanoma (B16F10) cells [3] = experiment: Trypan Blue cell viability/growth assay, B16F10 cells; type: cell-based, murine
Protocol: as §1, §2, §3, §4, §5

melanoma (B16F10) cells [4] = experiment: Melanin content assay (PAK1-dependent melanogenesis), B16F10 cells; type: cell-based, murine; settings: alpha-MSH 100 nM stimulated; read-out: IC50 against the PAK1-dependent melanogenesis of melanoma (B16F10) cells
Protocol: A. Cell line: Murine melanoma (B16F10) cells.
B. Cell seeding in 96 well plate: In culture medium D-MEM supplemented with 10% […] FBS (fetal bovine serum) and 1% penicillin/streptomycin (10,000 U/mL and 100 μg/mL). 2×10^4 cells were seeded in each well of 96 well plate in the medium at 37° C. for 24 hrs in a humidified atmosphere containing 5% CO2.
C. Inhibitor Stocks in DMSO (100 uM).
E. Melanin content Assay (4): The assay was performed as previously described. Cells were seeded in a 96-well plate at a density 5×10^4 cells/well in culture medium containing D-MEM supplemented with 10% FBS, 1% penicillin/streptomycin, and cultured for 24 hrs. Then, the cells were treated with a melanogenic stimulating hormone called α-MSH (100 nM), and treated with one of tested compounds for 48 hrs. After the medium was removed, cells were dissolved in 100 μL of 1 N NaOH. The mixture was heated at 90° C. for 1 hr, and the melanin content was estimated by reading the absorbance at 405 nm.

[5] = test system: Human follicle dermal papilla (HFDP) cells; experiment: Hair cell growth promoting (anti-alopecia) Trypan Blue assay, HFDP cells; type: cell-based
Protocol: A. Cell line: Human follicle dermal papilla (HFDP) cells.
B. Cell seeding in 96 well plate: In culture medium D-MEM medium containing 50 mL of papilla cell growth medium (PCGM), 0.5 mL of fetal calf serum (FSC), 0.5 mL of BPE, 0.25 mL of Cyp, and 0.25 mL of ITT in 51.5 mL total volume.
C. Inhibitor Stocks in DMSO (100 μM).
D. Trypan Blue assay for cell viability/growth (4): HFDP cells were collected and diluted in medium containing Dulbecco's modified minimum essential medium (D-MEM) and 10% fetal bovine serum (FBS) at cell density of 1×10^4 cell/mL. Then, 200 μL of cell suspension (2,000 cells/well) was transferred into each well of collagen-coated 96 well plate, and cells were incubated for 37° C., under 5% CO2 for 3 days. The medium was removed, and 200 μL of samples prepared in D-MEM only was added. After 4 days incubation, cell were detached from the plate by a protease called accutase, and stained with Trypan blue, and the number of unstained (viable) cells was counted in a hemocytometer.

[6] = Homo sapiens, growth of A459 lung cancer cell line (so in the source), read-out: IC50 of Original Acids
[7] = 96 hrs treatment, Trypan Blue exclusion, read-out: IC50 against the growth of A549 human lung cancer cells

T1 sequence (Q13153 whole entry): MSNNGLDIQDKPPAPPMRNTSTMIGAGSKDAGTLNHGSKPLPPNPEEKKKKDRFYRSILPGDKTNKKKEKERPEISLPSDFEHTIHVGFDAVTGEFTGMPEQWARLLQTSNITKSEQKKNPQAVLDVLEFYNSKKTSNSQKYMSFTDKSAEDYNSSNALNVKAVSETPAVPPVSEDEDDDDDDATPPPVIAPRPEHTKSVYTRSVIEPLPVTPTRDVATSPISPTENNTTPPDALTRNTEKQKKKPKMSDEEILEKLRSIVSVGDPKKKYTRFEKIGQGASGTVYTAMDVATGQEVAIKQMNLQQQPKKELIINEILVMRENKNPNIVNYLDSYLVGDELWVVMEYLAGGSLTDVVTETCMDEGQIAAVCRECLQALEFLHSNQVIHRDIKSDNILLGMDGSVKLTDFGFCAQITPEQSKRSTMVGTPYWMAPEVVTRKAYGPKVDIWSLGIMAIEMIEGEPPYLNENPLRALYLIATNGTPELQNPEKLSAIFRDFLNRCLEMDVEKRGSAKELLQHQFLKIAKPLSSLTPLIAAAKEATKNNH

CC(C)=CCc1cc(C=CC(=O)O)cc(CC=C(C)C)c1O [ARC, 3,5-diprenyl-4-hydroxycinnamic acid, reference compound]
IC50 [1, 6]: 25000 nM

O=C(O)/C=C/c1ccc(O)c(O)c1 [CA, caffeic acid, reference compound]
IC50 [1, 6]: 100000 nM

O=C(/C=C/c1ccc(O)c(O)c1)OCCc1ccccc1 [CAPE, caffeic acid phenethyl ester]
fold more potent (cell-permeable) than parent acid [2]: 10 fold

O=C(c1ccccc1)c1ccc2n1CCC2C(=O)O (racemic) [Ketorolac, 5-benzoyl-2,3-dihydro-1H-pyrrolizine-1-carboxylic acid, reference compound]
IC50 ([1]; Homo sapiens, A549, racemic mixture, our unpublished observation, read-out: IC50 against the growth of human cancer cells): 13000 nM
IC50 [1, 6]: 13000 nM

COc1ccccc1-n1cc(COC(=O)C2CCn3c(C(=O)c4ccccc4)ccc32)nn1 (racemic) [PRC-15K]
IC50 ([1]; A549, 50/50 racemic mixture, growth of human cancer cells, read-out: IC50): ~24 nM
IC50 ([1]; Homo sapiens, A549, 96 hrs treatment, Trypan Blue exclusion, read-out: IC50 against the growth of A549 human lung cancer cells): 24 nM
IC50 ([1]; Homo sapiens, growth of A459 lung cancer cell line (so in the source), read-out: IC50 of Esters): 24 nM
Potentiation of anti-cancer activity by esterization [1]: (>500 fold)
fold more potent than original acid, growth of A549 cells [1]: over 500 fold
times potent as much as compound 7 ([1]; vs racemic ketorolac): more than 500 times
inhibition at 0.07 µM (PAK1; at 70 nM): ~50%
fold more potent than Ketorolac, anti-PAK1 activity in cell culture (PAK1; vs Ketorolac): over 30 fold
IC50 (recombinant human COX-2; in vitro, racemic form, read-out: IC50 against human COX-2): 6 nM
fold more potent than Ketorolac, anti-COX-2 (recombinant human COX-2; vs Ketorolac): over 20 fold
fold more cell-permeable than original acid (EMT6 breast cancer cells): at least 10 fold
IC50 (melanoma (B16F10) cells [3]; Mus musculus, B16-F10, read-out: IC50 against the PAK1-independent growth of melanoma (B16F10) cells): 5 nM
fold more potent than Ketorolac, growth of B16F10 cells (melanoma (B16F10) cells [3]; vs Ketorolac): over 6000 fold

COc1ccccc1-n1cc(COC(=O)/C=C/c2cc(CC=C(C)C)c(O)c(CC=C(C)C)c2)nn1 [PRC-15A]
IC50 [1, 7]: 250 nM
Potentiation of anti-cancer activity by esterization [1]: (100 fold)
fold more potent than original acid, growth of A549 cells [1]: 100 fold
IC50 (melanoma (B16F10) cells [4]): 250 nM
ED for the growth of human hair (HFDP) cells ([5]; growth promotion): 20 nM
fold more potent than ARC, growth of HFDP cells ([5]; vs ARC): 1000 fold
anti-PAK1 activity in cell culture, inhibition (PAK1; at 1 mM): around 45%
fold more cell-permeable than original acid (EMT6 breast cancer cells): at least 8 fold

COc1ccccc1-n1cc(COC(=O)/C=C/c2ccc(O)c(O)c2)nn1 [PRC-15C]
IC50 [1, 7]: 225 nM
Potentiation of anti-cancer activity by esterization [1]: (>400 fold)
fold more potent than original acid, growth of A549 cells [1]: over 400 fold
IC50 (melanoma (B16F10) cells [4]): 225 nM
anti-PAK1 activity in cell culture, inhibition (PAK1; at 1 μM): around 35%
fold more cell-permeable than original acid (EMT6 breast cancer cells): at least 20 fold
fold more cell-permeable than original acid, probable upper estimate (EMT6 breast cancer cells; 'probably up to'): up to 70 fold
